Measured values: ChEMBL document CHEMBL1138903, “Secondary amides of sulfonylated 3-amidinophenylalanine. New potent and selective inhibitors of matriptase” (J Med Chem, 2006)
pKi: −log10 of the molar value.

Experiments:
[1] = molecular target: Urokinase-type plasminogen activator (Homo sapiens, UniProt P00749); assay: Inhibition of uPA
Plasminogen = Plasminogen (Homo sapiens, UniProt P00747); assay: Inhibition of plasmin
Prothrombin = Prothrombin (Homo sapiens, UniProt P00734); assay: Inhibition of thrombin
Coagulation factor X = Coagulation factor X (Homo sapiens, UniProt P00742); assay: Inhibition of f10a
Sequence of Coagulation factor X (P00742 41-179 limits assumed): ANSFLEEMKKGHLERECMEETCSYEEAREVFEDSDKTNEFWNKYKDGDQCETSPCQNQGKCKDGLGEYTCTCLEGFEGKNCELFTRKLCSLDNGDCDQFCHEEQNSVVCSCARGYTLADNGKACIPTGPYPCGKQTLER
Sequence of Coagulation factor X (P00742 235-488 limits assumed): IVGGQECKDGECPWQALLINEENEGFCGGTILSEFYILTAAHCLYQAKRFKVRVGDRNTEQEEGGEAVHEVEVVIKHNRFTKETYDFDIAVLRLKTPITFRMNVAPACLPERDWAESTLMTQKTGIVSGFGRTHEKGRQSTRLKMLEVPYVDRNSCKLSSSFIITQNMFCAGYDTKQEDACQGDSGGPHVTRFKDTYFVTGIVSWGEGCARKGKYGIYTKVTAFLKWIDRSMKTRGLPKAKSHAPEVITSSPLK

[2] = molecular target: T1, Suppressor of tumorigenicity 14 protein (Homo sapiens, UniProt Q9Y5Y6)
T1 sequence (Q9Y5Y6 whole entry): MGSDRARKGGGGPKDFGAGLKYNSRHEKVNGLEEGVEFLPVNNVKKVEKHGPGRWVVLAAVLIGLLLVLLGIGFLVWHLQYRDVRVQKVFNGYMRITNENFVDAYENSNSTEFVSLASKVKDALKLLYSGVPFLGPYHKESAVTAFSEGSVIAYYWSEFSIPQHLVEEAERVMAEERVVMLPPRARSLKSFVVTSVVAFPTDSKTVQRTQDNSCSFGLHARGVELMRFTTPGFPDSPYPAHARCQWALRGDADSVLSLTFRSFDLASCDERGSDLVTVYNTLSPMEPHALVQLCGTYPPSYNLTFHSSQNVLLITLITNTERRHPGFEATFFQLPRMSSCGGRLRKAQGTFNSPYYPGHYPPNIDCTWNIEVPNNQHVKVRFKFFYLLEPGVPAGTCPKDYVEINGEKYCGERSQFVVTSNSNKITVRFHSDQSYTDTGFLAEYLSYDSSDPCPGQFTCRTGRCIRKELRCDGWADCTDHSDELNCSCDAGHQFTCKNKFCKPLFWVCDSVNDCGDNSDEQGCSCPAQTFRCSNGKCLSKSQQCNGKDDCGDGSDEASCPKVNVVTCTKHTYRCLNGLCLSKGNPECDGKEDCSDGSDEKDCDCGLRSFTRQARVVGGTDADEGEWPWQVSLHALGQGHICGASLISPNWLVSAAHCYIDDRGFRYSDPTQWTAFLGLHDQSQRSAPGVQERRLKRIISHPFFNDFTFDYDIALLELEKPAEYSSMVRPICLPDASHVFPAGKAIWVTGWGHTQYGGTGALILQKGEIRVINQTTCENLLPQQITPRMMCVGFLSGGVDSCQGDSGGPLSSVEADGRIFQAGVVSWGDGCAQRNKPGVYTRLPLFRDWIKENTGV

Sequence of Plasminogen (P00747 97-580 limits assumed): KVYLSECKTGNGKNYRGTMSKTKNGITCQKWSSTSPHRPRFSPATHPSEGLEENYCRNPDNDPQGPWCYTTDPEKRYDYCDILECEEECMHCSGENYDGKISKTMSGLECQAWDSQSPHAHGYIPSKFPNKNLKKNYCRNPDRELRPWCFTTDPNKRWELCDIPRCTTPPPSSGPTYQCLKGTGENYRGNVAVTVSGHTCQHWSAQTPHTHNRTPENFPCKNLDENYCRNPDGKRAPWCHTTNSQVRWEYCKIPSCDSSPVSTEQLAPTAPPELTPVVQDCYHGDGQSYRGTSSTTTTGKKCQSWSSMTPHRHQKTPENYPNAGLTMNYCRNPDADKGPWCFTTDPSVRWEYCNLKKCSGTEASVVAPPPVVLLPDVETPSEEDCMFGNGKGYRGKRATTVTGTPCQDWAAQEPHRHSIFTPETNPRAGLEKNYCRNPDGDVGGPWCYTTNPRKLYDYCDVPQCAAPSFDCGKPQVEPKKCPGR
Sequence of Plasminogen (P00747 581-810 limits assumed): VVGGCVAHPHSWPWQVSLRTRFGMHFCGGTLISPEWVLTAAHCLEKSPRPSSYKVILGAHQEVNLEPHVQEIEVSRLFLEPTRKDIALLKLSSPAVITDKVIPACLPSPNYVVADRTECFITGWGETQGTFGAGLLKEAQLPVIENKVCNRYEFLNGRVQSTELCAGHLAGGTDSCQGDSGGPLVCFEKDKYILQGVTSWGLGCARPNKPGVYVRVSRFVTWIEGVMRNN

| Structure (SMILES) | pKi [1] | pKi (Plasminogen) | pKi (Prothrombin) | pKi (Coagulation factor X) | pKi [2] |
| --- | --- | --- | --- | --- | --- |
| CC(C)c1cc(C(C)C)c(S(=O)(=O)N[C@@H](Cc2cccc(C(=N)N)c2)C(=O)N2CCN(C(=O)C3CCN(C(=N)N)CC3)CC2)c(C(C)C)c1 | 5.96 | 6.22 | 5.30 | 5.00 | – |
| CCOC(=O)N1CCN(C(=O)[C@H](Cc2cccc(C(=N)N)c2)NS(=O)(=O)c2c(C(C)C)cc(C(C)C)cc2C(C)C)CC1 | – | – | – | 5.77 | – |
| N=C(N)NCCC(=O)Nc1ccc(S(=O)(=O)N[C@@H](Cc2cccc(C(=N)N)c2)C(=O)N2CCC(CCNC(=N)N)CC2)cc1 | 6.22 | 5.92 | 5.74 | 5.00 | 8.06 |
| CC(C)c1cc(C(C)C)c(S(=O)(=O)N[C@@H](Cc2cccc(C(=N)N)c2)C(=O)N2CCCN(C(=O)CCN)CC2)c(C(C)C)c1 | 5.92 | 6.44 | 6.31 | 5.28 | – |
| CC(C)c1cc(C(C)C)c(S(=O)(=O)N[C@@H](Cc2cccc(C(=N)N)c2)C(=O)N2CCN(C(=O)CCN)CC2)c(C(C)C)c1 | – | 6.36 | 5.48 | 4.82 | – |
| Cc1c(C)c(S(=O)(=O)N[C@@H](Cc2cccc(C(=N)N)c2)C(=O)N2CCN(C(=O)CCN=C(N)N)CC2)c(C)c2c1OC(C)(C)C2 | 4.60 | 4.99 | 5.52 | < 3.00 | 6.14 |
| N=C(N)NCCC1CCN(C(=O)[C@H](Cc2cccc(C(=N)N)c2)NS(=O)(=O)c2ccc(Oc3ccccc3)cc2)CC1 | 5.64 | 6.12 | 6.68 | 6.00 | 7.42 |
| N=C(N)NCCC(=O)N1CCN(C(=O)[C@H](Cc2cccc(C(=N)N)c2)NS(=O)(=O)c2ccc3cc4ccccc4cc3c2)CC1 | 5.21 | 5.49 | 6.34 | 5.34 | – |
| N=C(N)c1cccc(C[C@H](NS(=O)(=O)c2cccc(NC(=O)CN)c2)C(=O)N2CCC(CCN)CC2)c1 | 4.96 | 5.35 | 5.15 | 4.46 | – |
| CC(C)c1cc(C(C)C)c(S(=O)(=O)N[C@@H](Cc2cccc(C(=N)N)c2)C(=O)N2CCN(C(=O)C3CCNCC3)CC2)c(C(C)C)c1 | 5.92 | 5.89 | 5.27 | 4.77 | – |
| N=C(N)c1cccc(C[C@H](NS(=O)(=O)c2ccc3ccccc3c2)C(=O)N2CCC(CCN)CC2)c1 | 5.64 | 5.85 | 6.68 | 4.12 | – |
| N=C(N)c1cccc(C[C@H](NS(=O)(=O)c2ccc(Cc3ccncc3)cc2)C(=O)N2CCC(CCN=C(N)N)CC2)c1 | 5.44 | 6.08 | 6.57 | 5.64 | 7.28 |
| N=C(N)NCCC(=O)N1CCN(C(=O)[C@H](Cc2cccc(C(=N)N)c2)NS(=O)(=O)c2ccc3c(c2)C(=O)c2ccccc2C3=O)CC1 | 4.59 | 5.14 | 5.74 | 5.55 | 7.28 |
| CCC(=O)N1CCN(C(=O)[C@H](Cc2cccc(C(=N)N)c2)NS(=O)(=O)c2ccc3c(c2)C(=O)c2ccccc2C3=O)CC1 | 4.51 | 5.22 | 7.27 | 5.89 | – |
| CC(C)c1cc(C(C)C)c(S(=O)(=O)N[C@@H](Cc2cccc(C(=N)N)c2)C(=O)N2CCCN(C(=O)C3CCNCC3)CC2)c(C(C)C)c1 | 5.60 | 6.59 | 5.30 | 5.24 | – |
| N=C(N)c1cccc(C[C@H](NS(=O)(=O)c2ccc3c(c2)C(=O)c2ccccc2C3=O)C(=O)N2CCC(C(=O)NCCN)CC2)c1 | 5.11 | 5.51 | 6.38 | 5.40 | 7.68 |
| N=C(N)NCCC(=O)N1CCN(C(=O)[C@H](Cc2cccc(C(=N)N)c2)NS(=O)(=O)c2cccc3ccccc23)CC1 | 4.72 | 5.43 | 5.60 | 5.29 | 6.47 |
| CC(C)c1cc(C(C)C)c(S(=O)(=O)NC(Cc2cccc(C(=N)N)c2)C(=O)N2CCN(C(=O)CN)CC2)c(C(C)C)c1 (racemic) | 5.05 | 5.47 | 6.70 | 4.98 | 6.16 |
| CC(C)c1cc(C(C)C)c(S(=O)(=O)NC(Cc2cccc(C(=N)N)c2)C(=O)N2CCN(C(=O)CN=C(N)N)CC2)c(C(C)C)c1 (racemic) | 5.82 | 6.09 | 5.92 | 5.05 | 6.48 |
| N=C(N)c1cccc(C[C@H](NS(=O)(=O)c2cccc(NC(=O)CCN)c2)C(=O)N2CCC(CCCN)CC2)c1 | 5.82 | 5.57 | 4.89 | 4.82 | 8.30 |

| Structure (SMILES) | pKi [1] | pKi (Plasminogen) | pKi (Prothrombin) | pKi (Coagulation factor X) | pKi [2] |
| --- | --- | --- | --- | --- | --- |
| N=C(N)NCCNC(=O)C1CCN(C(=O)[C@H](Cc2cccc(C(=N)N)c2)NS(=O)(=O)c2ccc3c(c2)C(=O)c2ccccc2C3=O)CC1 | 5.44 | 5.39 | 6.38 | 5.31 | 7.89 |
| N=C(N)NCCC1CCN(C(=O)[C@H](Cc2cccc(C(=N)N)c2)NS(=O)(=O)c2ccc(C3CCCCC3)cc2)CC1 | 5.72 | 5.70 | 7.29 | 5.74 | 7.06 |
| N=C(N)c1cccc(C[C@H](NS(=O)(=O)c2ccc3ccccc3c2)C(=O)N2CCC(C3CCNCC3)CC2)c1 | 5.66 | 6.68 | 4.92 | 4.62 | – |
| N=C(N)c1cccc(C[C@H](NS(=O)(=O)c2ccc3ccccc3c2)C(=O)N2CCC(CCCN)CC2)c1 | 5.68 | 6.14 | 6.22 | 4.18 | 6.80 |
| N=C(N)c1cccc(C[C@H](NS(=O)(=O)c2ccc(C3CCCCC3)cc2)C(=O)N2CCNCC2)c1 | 5.18 | 5.55 | 6.77 | 5.96 | – |
| CC(C)c1cc(C(C)C)c(S(=O)(=O)N[C@@H](Cc2cccc(C(=N)N)c2)C(=O)N2CCNCC2)c(C(C)C)c1 | 6.06 | 6.10 | 5.89 | 5.34 | 7.00 |
| CC(C)c1cc(C(C)C)c(S(=O)(=O)N[C@@H](Cc2cccc(C(=N)N)c2)C(=O)N2CCC(C(=O)NCCN=C(N)N)CC2)c(C(C)C)c1 | 6.21 | 5.74 | 4.70 | 5.30 | 6.85 |
| CC(C)c1cc(C(C)C)c(S(=O)(=O)N[C@@H](Cc2cccc(C(=N)N)c2)C(=O)N2CCN(C(=N)N)CC2)c(C(C)C)c1 | 5.80 | 5.74 | 4.89 | 5.43 | – |
| N=C(N)NCCC(=O)N1CCN(C(=O)[C@H](Cc2cccc(C(=N)N)c2)NS(=O)(=O)c2ccc(-c3ccccc3)cc2)CC1 | 5.40 | 5.51 | 6.24 | 5.00 | 6.60 |
| CC(C)c1cc(C(C)C)c(S(=O)(=O)N[C@@H](Cc2cccc(C(=N)N)c2)C(=O)N2CCCN(C(=O)C3CCN(C(=N)N)CC3)CC2)c(C(C)C)c1 | 5.34 | 6.48 | 5.60 | 5.39 | 7.30 |
| CC(C)c1cc(C(C)C)c(S(=O)(=O)N[C@@H](Cc2cccc(C(=N)N)c2)C(=O)N2CCN(C(=O)CCCN)CC2)c(C(C)C)c1 | 5.96 | 6.19 | 5.03 | 4.89 | 6.85 |
| N=C(N)NCCCC1CCN(C(=O)[C@H](Cc2cccc(C(=N)N)c2)NS(=O)(=O)c2ccc3ccccc3c2)CC1 | 5.68 | 5.92 | 6.77 | 4.47 | 7.38 |
| N=C(N)NCCC(=O)N1CCN(C(=O)[C@H](Cc2cccc(C(=N)N)c2)NS(=O)(=O)Cc2ccc3ccccc3c2)CC1 | 4.37 | 4.92 | 5.59 | 3.89 | 6.40 |
| N=C(N)NCCC(=O)N1CCN(C(=O)[C@H](Cc2cccc(C(=N)N)c2)NS(=O)(=O)c2ccc3ccccc3c2)CC1 | 5.16 | 5.55 | 5.85 | 4.25 | 6.68 |
| N=C(N)c1cccc(C[C@H](NS(=O)(=O)c2cccc(NC(=O)CCCN)c2)C(=O)N2CCC(CCN)CC2)c1 | 5.10 | 5.60 | 4.68 | 4.64 | – |
| Cc1ccc(S(=O)(=O)NC(Cc2cccc(C(=N)N)c2)C(=O)N2CCCCC2)cc1 (configuration not stated) | – | – | – | – | 4.85 |
| CC(C)c1cc(C(C)C)c(S(=O)(=O)NC(Cc2cccc(C(=N)N)c2)C(=O)N2CCN(C(=O)CCN=C(N)N)CC2)c(C(C)C)c1 (configuration not stated) | – | – | – | – | 7.09 |
| N=C(N)c1cccc(C[C@H](NS(=O)(=O)c2ccc(-c3ccccc3)cc2)C(=O)N2CCN(C(=O)C3CCN(C(=N)N)CC3)CC2)c1 | 4.92 | 5.85 | 5.89 | 5.55 | – |
| N=C(N)c1cccc(C[C@H](NS(=O)(=O)c2ccc3ccccc3c2)C(=O)N2CCC(C3CCN(C(=N)N)CC3)CC2)c1 | 5.89 | 5.85 | 5.74 | 4.60 | – |
